{"source": "patent US8906953B2", "about": "“Pyrrolidine substitute flavones for the treatment of inflammatory disorders” (Piramal Enterprises Limited, priority 2010, dated 2014)", "key": {"IκBα": {"tested_on": "IκBα", "experiment": "TNFα-induced IκBα phosphorylation and degradation, western blot in Jurkat cells", "assay_type": "cell-based, human", "conditions": "0.1 μM, 0.1 nM TNF-α 0-90 minutes", "experimental": "The method for IκBα degradation was designed as in reference, The Journal of Immunology, 1999, 103, 6800-6809, the disclosure of which is also incorporated by reference for the teaching of the assay.\nHuman Jurkat T-cells from American Type Culture Collection (ATCC) were cultivated in Rosewell Park Memorial Institute (RPMI) medium supplemented with 10% fetal bovine serum (FBS), penicillin (100 U/mL) and streptomycin (100 μg/mL) at 37° C. in humidified atmosphere of 95% air-5% CO2. Culture medium was changed every 2-3 days and always 24 hours before harvest. RPMI medium, FBS, CellLytic, anti-β-actin, sodium orthovanadate and anisomycin were purchased from Sigma-Aldrich (USA). TNF-α was purchased from R & D Systems (USA). Complete Protease inhibitor cocktail was procured from Roche.\nJurkat cells were preincubated with vehicle or the compound of example 3 (0.1 μM) for 1 hour in a 37° C., CO2 incubator. For MAPK experiments, the cells were stimulated with anisomycin (10 μg/mL) for 30 minutes. SB 203580 was used as a standard (1 μM). For studies pertaining to degradation of IκBα and IκBα (phospho) the cells were stimulated with 0.1 nM TNF-α for 0, 5, 15, 30, 60 and 90 minutes. […] Aliquots of the resulting extracts were analyzed for their protein content using the Coomassie Plus Protein Assay Reagent (Pierce) following manufacturer's instructions. […]"}, "E-selectin": {"tested_on": "E-selectin", "experiment": "TNF-α induced cell surface expression of E-selectin on HUVECs", "assay_type": "cell-based", "conditions": "Homo sapiens, HUVEC; TNF-α (1 ng/mL) stimulated HUVECs, 6 hours, n=2", "experimental": "The assay was designed as in reference, Transplantation, 1997, 63(5), 759-764, the disclosure of which is incorporated herein by reference for the teaching of the assay.\nHuman umbilical vein endothelial cells (HUVECs) were obtained from Cascade Biologics (Oregon-USA). Cells were cultured in M-200 medium (Cascade Biologics) supplemented with low serum growth supplements (LSGS) (Cascade Biologics), penicillin-G (100 U/mL), streptomycin (100 μg/mL) and amphotericin B (50 ng/mL) (GIBCO). […] After TNF-α stimulation (1 ng/mL) (R&D Systems (Minneapolis, Minn.)) for 4 hours at 37° C. in an atmosphere of 5% CO2, supernatants were harvested and assayed for the expression of ICAM-1 (intercellular cell adhesion molecules), whereas the expressions of VCAM-1 (vascular cell adhesion molecules) and E-selectin were evaluated after 6 hours of stimulation. […] To quantitatively measure the amount of cell surface expressions of ICAM-1, VCAM-1 and E-selectin, ELISA assay was performed using anti-ICAM-1 (clone BBIG-I1), anti-VCAM-1 (clone BBIG-V1), anti-E-selectin (clone BBIG-E4) antibodies, isotype control mouse IgG1 (clone 11711.11) and the secondary antibody (anti-mouse IgG-HRP antibody) which were procured from R&D Systems (Minneapolis, Minn., USA). […]"}}, "data": [{"smiles": "CN1CC[C@@H](c2c(O)cc(O)c3c(=O)cc(-c4ccc(C(F)(F)F)cc4Cl)oc23)[C@@H]1CO.Cl", "note": "[Compound of example 3, (+)-trans-2-(2-Chloro-4-trifluoromethyl-phenyl)-5,7-dihydroxy-8-(2-hydroxymethyl-1-methyl-pyrrolidin-3-yl)-chromen-4-one hydrochloride]", "values": [{"measurement": "TNFα-induced IkBα phosphorylation and degradation (western blot)", "setting": "IκBα", "result": "blocks TNFα-induced IkBα phosphorylation and degradation"}, {"measurement": "IC50", "setting": "E-selectin", "result": 650, "unit": "nM"}]}]}
